Data on one molecule can be found in ChEMBL document CHEMBL5512640, “Discovery of novel itaconimide-based derivatives as potent HDAC inhibitors for the efficient treatment of prostate cancer” (Eur J Med Chem, 2024).

Some results are limits rather than exact numbers.

In one data set the test system is LNCaP. Put plainly: Antiproliferative activity against human LNCaP cells incubated for 96 hrs by MTT assay. The format is functional, cell-based. For orientation: Tetrazolium assays rely on reduction of a dye to a coloured formazan, in cell work by metabolically active cells.
For the next data set, the system named is A549. Put plainly: Antiproliferative activity against human A549 cells incubated for 96 hrs by MTT assay. As to conditions: A549, 96 h. In kind it is functional, cell-based.
Data set [1] in a line: Toxicity in Balb/c mouse assessed as effect on body weight at 100 mg/kg, po measured upto 40 days in presence of docetaxel. In kind it is organism-based. The following applies: in vivo, 960 h, time < 40 day.
Data set [2] in a line: AUC (0 to infinity) in Sprague-Dawley rat at 2 mg/kg, iv measured upto 24 hrs by LC-MS/MS analysis. In kind it is ADME, organism-based. The following applies: in vivo.
Data set [3] can be described thus: AUC (0 to infinity) in Sprague-Dawley rat at 10 mg/kg, po measured upto 24 hrs by LC-MS/MS analysis. In kind it is ADME, organism-based. As to conditions: in vivo.
Data set [4] deals with DU-145. The experiment in a line: Induction of apoptosis in human DU-145 cells assessed as apoptotic rate at 1.6 uM measured after 72 hrs by annexin V-FITC and PI staining based flow cytometry analysis relative to control. The format is functional. Background: Flow cytometry measures light scatter and fluorescence of single cells or particles in a stream.
Another data set concerns HCT-116. Put plainly: Antiproliferative activity against human HCT-116 cells incubated for 96 hrs by MTT assay. In kind it is functional, cell-based. As to conditions: HCT-116, 96 h.
The subject of data set [5] is DU-145. The experiment in a line: Inhibition of cell migration in human DU-145 cells assessed as suppression of wound closure incubated for 12 hrs by wound healing assay. As to conditions: dose 0.2-1.6 µM. The format is functional, cell-based.
The next data set deals with Histone deacetylase 1 (Homo sapiens, UniProt Q13547). The experiment in a line: Inhibition of human HDAC1 incubated for 10 mins followed by fluorogenic substrate addition by fluorescence based analysis.
The target in a further data set is Histone deacetylase 7 (Homo sapiens, UniProt Q8WUI4). Put plainly: Inhibition of human HDAC7 incubated for 10 mins followed by fluorogenic substrate addition by fluorescence based analysis.
Data set [6] concerns DU-145. Put plainly: animal or person. The format is functional, Homo sapiens. As to conditions: Mus musculus, DU-145, 960 h, route po, time 40 day, read-out: TGI.
Description: Antitumor activity against human DU-145 cells xenografted in Balb/c nude mouse model assessed as tumor growth inhibition at 100 mg/kg, po administered once daily for 40 days relative to control
A short description of data set [7]: Acute toxicity in Sprague-Dawley rat assessed as effect on liver at 500 to 4500 mg/kg, po measured after 15 days. The format is organism-based. The following applies: in vivo, 360 h, dose 500-4500 mg/kg, time 15 day.
The target in data set [8] is Polyamine deacetylase HDAC10 (Homo sapiens, UniProt Q969S8). Put plainly: Inhibition of human HDAC10 incubated for 10 mins followed by fluorogenic substrate addition by fluorescence based analysis.
Data set [9] has as its system DU-145. Put plainly: Upregulation of histone H3 level in human DU-145 cells incubated for 24 hrs by Western blot analysis. The format is functional, cell-based. As to conditions: dose 0.8-3.2 µM.

Chain of Histone deacetylase 7 (Q8WUI4 whole entry): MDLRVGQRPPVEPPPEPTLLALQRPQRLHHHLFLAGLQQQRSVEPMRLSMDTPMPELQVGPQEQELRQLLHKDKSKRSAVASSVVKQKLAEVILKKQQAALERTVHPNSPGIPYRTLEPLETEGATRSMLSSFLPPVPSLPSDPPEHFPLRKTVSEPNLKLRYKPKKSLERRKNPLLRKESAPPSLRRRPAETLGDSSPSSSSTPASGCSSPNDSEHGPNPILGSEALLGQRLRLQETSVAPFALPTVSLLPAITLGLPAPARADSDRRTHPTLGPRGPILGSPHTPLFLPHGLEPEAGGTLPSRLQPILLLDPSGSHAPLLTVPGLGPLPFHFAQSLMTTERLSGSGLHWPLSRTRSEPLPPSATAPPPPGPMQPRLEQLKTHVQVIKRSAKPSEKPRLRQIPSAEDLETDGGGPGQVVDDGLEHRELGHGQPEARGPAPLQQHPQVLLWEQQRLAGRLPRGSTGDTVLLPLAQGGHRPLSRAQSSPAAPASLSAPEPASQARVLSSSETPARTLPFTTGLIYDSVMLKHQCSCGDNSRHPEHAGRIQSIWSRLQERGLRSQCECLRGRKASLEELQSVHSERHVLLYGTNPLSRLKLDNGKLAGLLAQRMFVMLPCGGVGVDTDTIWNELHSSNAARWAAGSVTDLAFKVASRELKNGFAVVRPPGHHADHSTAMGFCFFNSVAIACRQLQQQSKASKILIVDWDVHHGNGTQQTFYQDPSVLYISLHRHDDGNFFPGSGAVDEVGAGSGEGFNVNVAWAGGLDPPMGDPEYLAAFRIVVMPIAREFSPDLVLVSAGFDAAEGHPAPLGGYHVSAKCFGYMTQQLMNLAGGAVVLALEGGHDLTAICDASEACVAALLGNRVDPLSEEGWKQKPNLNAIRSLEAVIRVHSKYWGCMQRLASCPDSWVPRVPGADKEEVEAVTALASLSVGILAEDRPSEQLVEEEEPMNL
Chain of Histone deacetylase 1 (Q13547 whole entry): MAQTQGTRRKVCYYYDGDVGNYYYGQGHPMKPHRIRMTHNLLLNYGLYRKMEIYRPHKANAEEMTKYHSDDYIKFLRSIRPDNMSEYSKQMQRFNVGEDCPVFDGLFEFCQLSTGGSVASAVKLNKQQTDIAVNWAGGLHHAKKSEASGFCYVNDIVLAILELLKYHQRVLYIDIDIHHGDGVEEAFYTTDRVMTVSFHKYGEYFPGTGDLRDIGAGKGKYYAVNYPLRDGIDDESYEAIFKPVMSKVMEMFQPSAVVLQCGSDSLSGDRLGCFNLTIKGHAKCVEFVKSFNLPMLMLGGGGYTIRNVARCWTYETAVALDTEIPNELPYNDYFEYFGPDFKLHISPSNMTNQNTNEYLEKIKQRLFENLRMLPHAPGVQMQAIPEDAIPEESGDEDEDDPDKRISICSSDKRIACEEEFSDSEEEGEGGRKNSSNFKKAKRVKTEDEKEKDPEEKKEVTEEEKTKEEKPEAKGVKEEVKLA
Chain of Polyamine deacetylase HDAC10 (Q969S8 whole entry): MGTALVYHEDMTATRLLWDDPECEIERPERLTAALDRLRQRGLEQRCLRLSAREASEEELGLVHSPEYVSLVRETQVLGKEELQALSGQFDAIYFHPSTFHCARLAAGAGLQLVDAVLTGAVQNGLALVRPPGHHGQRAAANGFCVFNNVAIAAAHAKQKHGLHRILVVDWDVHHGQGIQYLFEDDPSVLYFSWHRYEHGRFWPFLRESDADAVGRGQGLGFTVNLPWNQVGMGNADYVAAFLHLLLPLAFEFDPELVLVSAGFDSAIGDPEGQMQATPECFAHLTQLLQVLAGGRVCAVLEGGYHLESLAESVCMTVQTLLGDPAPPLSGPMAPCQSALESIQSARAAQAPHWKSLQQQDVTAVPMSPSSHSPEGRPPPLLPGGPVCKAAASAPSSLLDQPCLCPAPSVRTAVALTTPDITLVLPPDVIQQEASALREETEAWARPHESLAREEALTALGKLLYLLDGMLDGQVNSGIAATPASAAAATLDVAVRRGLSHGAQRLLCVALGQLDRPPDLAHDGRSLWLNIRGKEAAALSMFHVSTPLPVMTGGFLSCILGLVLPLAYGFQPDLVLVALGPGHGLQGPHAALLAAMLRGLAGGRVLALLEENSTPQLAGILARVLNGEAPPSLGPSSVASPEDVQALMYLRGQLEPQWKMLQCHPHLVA

Consider `COc1ccccc1/C=C1\CC(=O)N(CCCCCCC(=O)NO)C1=O`, for which the IC50 in the data set with LNCaP is 630 nM; in the data set on A549 it was 1390 nM; in the data set on HCT-116, 470 nM; on Histone deacetylase 1, 12.6 nM; at Histone deacetylase 7, > 5000 nM; in data set [8], 72 nM. Also, the Activity entry was “Non-Toxic” in data set [1], 59.87% in the data set with DU-145 [4], “Non-Toxic” in data set [7] and “Dose-Dependent Effect” in the data set on DU-145 [9]. The AUC(0-inf) came to 1630 ng·h/mL in data set [2] and 3800 ng·h/mL in data set [3]. Moreover, the inhibition entry in the data set on DU-145 [5] is “Dose-Dependent Effect”. Besides, the inhibition in vivo at 100 mg/kg with DU-145 [6] was 50.9%.

By IC50 is commonly meant the concentration that inhibits the measured activity by half. Low values mean greater potency in that assay, high ones weaker potency in that assay. The term AUC(0-inf) denotes the area under the concentration-time curve extrapolated to infinity.
